Test results as given in ChEMBL document CHEMBL5143633, “Isolation, Structure Determination, and Semisynthesis of Diphenazine Compounds from a Deep-Sea-Derived Strain of the Fungus Cystobasidium laryngis and Their Biological Activities” (J Nat Prod, 2022).
Structures can show the parent of a compound that is named as a salt.

Tests used:
PC-3 = assay: Cytotoxicity against human PC-3 cells assessed as cell growth inhibition incubated for 48 hrs by SRB method; assay type: functional, cell-based; conditions: PC-3, 48 h
NCI-H23 = assay: Cytotoxicity against human NCI-H23 cells assessed as cell growth inhibition incubated for 48 hrs by SRB method; assay type: functional, cell-based; conditions: NCI-H23, 48 h
HCT-15 = assay: Cytotoxicity against human HCT-15 cells assessed as cell growth inhibition incubated for 48 hrs by SRB method; assay type: functional, cell-based; conditions: HCT-15, 48 h
ACHN = assay: Cytotoxicity against human ACHN cells assessed as cell growth inhibition incubated for 48 hrs by SRB method; assay type: functional, cell-based
BV-2 [1] = assay: Anti-neuroinflammatory activity in mouse BV-2 cells assessed as inhibition of LPS-induced NO production pretreated for 1 hr followed by LPS addition measured after 24 hrs by Griess reagent based assay; assay type: functional, cell-based
NUGC-3 = assay: Cytotoxicity against human NUGC-3 cells assessed as cell growth inhibition incubated for 48 hrs by SRB method; assay type: functional, cell-based; conditions: NUGC-3, 48 h
MDA-MB-231 = assay: Cytotoxicity against human MDA-MB-231 cells assessed as cell growth inhibition incubated for 48 hrs by SRB method; assay type: functional, cell-based; conditions: MDA-MB-231, 48 h
BV-2 [2] = assay: Cytotoxicity against LPS induced mouse BV-2 cells assessed as reduction in cell viability at >1 uM pretreated for 1 hr followed by LPS addition measured after 24 hrs by MTT assay; assay type: toxicity, cell-based; conditions: bv-2, 25 h

Row | SMILES | IC50 (PC-3) [µM] | IC50 (NCI-H23) [µM] | IC50 (HCT-15) [µM] | IC50 (ACHN) [µM] | IC50 (BV-2 [1]) [µM] | IC50 (NUGC-3) [µM] | IC50 (MDA-MB-231) [µM] | Activity (BV-2 [2])
1 | C[C@@H](O)c1cccc2nc3c(C(=O)O)cccc3nc12 | > 10 | > 10 | > 10 | > 10 | 16 | > 10 | > 10 | –
2 | C[C@H](c1cccc2nc3c(C(=O)O)cccc3nc12)c1ccc(C(=O)O)c2nc3cccc([C@@H](C)O)c3nc12 | > 10 | > 10 | > 10 | > 10 | 170 | > 10 | > 10 | –
3 | CC(=O)c1cccc2nc3c(C(=O)O[C@H](C)c4cccc5nc6c(C(=O)O)cccc6nc45)cccc3nc12 | 0.047 | 0.043 | 0.06 | 0.072 | – | 0.035 | 0.052 | –
4 | C[C@@H](c1cccc2nc3c(C(=O)O)cccc3nc12)c1ccc(C(=O)O)c2nc3cccc([C@@H](C)O)c3nc12 | > 10 | > 10 | > 10 | > 10 | 90 | > 10 | > 10 | –
5 | CC(=O)c1cccc2nc3c(C(=O)O)ccc([C@H](C)c4cccc5nc6c(C(=O)O)cccc6nc45)c3nc12 | > 10 | > 10 | > 10 | > 10 | 35 | > 10 | > 10 | –
6 | C[C@@H](O)c1cccc2nc3c(C(=O)O[C@H](C)c4cccc5nc6c(C(=O)O)cccc6nc45)cccc3nc12 | 0.01 | 0.01 | 0.01 | 0.014 | 0.3 | 0.0077 | 0.01 | Toxic
7 | C[C@@H](OC(=O)c1ccccc1N)c1cccc2nc3c(C(=O)O)cccc3nc12 | > 10 | > 10 | > 10 | > 10 | – | > 10 | > 10 | –
8 | C[C@@H](c1cc(C(=O)O)c2nc3cccc([C@@H](C)O)c3nc2c1)c1cccc2nc3c(C(=O)O)cccc3nc12 | > 10 | > 10 | > 10 | > 10 | – | > 10 | > 10 | –
9 | C[C@H](c1cc([C@@H](C)O)c2nc3cccc(C(=O)O)c3nc2c1)c1cccc2nc3c(C(=O)O)cccc3nc12 | > 10 | > 10 | > 10 | > 10 | – | > 10 | > 10 | –
10 | COc1cccc2c1C(=O)c1c(O)c3c(c(O)c1C2=O)C[C@@](O)(C(=O)CO)C[C@@H]3O[C@H]1C[C@H](N)[C@H](O)[C@H](C)O1 [DOXORUBICIN HYDROCHLORIDE] | – | 0.16 | 0.17 | 0.17 | – | 0.15 | 0.15 | –
